From US20220024879A1, “COMPOUNDS FOR TREATMENT OF HEPACI VIRUS INFECTION AND METHOD FOR DETERMINING THERAPY OF HEPACI VIRUS INFECTION, IN PARTICULAR, HCV INFECTION” (priority 2018, published 2022)

How the values were obtained:
[1] = tested on: low pH-triggered HCV cell membrane fusion; experiment: Fusion at the plasma membrane assay; format: cell-based, Hepatitis C virus; details: 5 nM Con A, pH 5.0 wash 5 minutes
JcR2a/J8-E1-R3.2_4 aa = format: cell-based, Hepatitis C virus; details: M290A, W299N, V301T, P310Q
J8 (GT2b) = format: cell-based
[2] = tested on: Jc1 and HCV strains Con1 (GT1b), J8 (GT2b), S52 (GT3a), ED43 (GT4a), SA13 (GT5a), HK6a (GT6a) and QC69 (GT7a); format: cell-based; details: Jc1 versus GT1b, 2b, 3a, 4a, 5a, 6a, 7a strains
JcR2a-Flun-R [3] = format: cell-based
JcR2a = experiment: HCV whole life cycle compound screening assay; format: cell-based, Hepatitis C virus; details: Jc1 reporter virus, versus flunarizine
JcR2a-E1 R4 = format: cell-based; details: 313-383
JcR2a-Flun-R [4] = details: Jc1 passaged in presence of flunarizine; Perin et al.; cited from earlier work
Jc1/J8-E1_R3 = format: cell-based; details: Aa 267-312
[5] = tested on: low pH-triggered HCV cell membrane fusion; details: earlier work of the applicant, data not shown; cited from earlier work
JcR2a/J8-E1_R1 = format: cell-based; details: Aa 192-230
Jc1R2a/J8-E1 chimera = format: cell-based; details: entire E1 replaced

Compound | resistance of JcR2a/J8-E1-R3.2_4 aa, shift of the IC50 versus parental JcR2a (JcR2a/J8-E1-R3.2_4 aa) | resistance of J8 (GT2b) (in words) (J8 (GT2b)) | strain-dependent antiviral activity (in words) [2] | antiviral activity, effect of the substituent (SAR, in words) (JcR2a) | other results
COc1ccc(-c2cc(=O)c3c(O)c(O)c(OC)cc3o2)cc1 [BJ486K] | – | – | – | – | inhibition of HCV infection when administered only during the low pH washing step [1]: did not inhibit HCV infection
CN1CCN(C(c2ccccc2)c2ccc(Cl)cc2)CC1 (centres unmarked) [chlorcyclizine] | 6 fold | pronounced resistance | preferentially inhibited Jc1 | – | –
COc1cc(/C=C/C(=O)CC(=O)/C=C/c2ccc(O)c(OC)c2)ccc1O [curcumin] | not | – | similarly active against all tested viruses | – | inhibition of JcR2a-Flun-R compared with JcR2a (in words) (JcR2a-Flun-R [3]): equally inhibited
C/C(=C\c1ccccc1)CN1CCN(C(c2ccc(F)cc2)c2ccc(F)cc2)CC1 [entry 20] | – | – | – | not beneficial | –
Fc1ccc(C(c2ccc(F)cc2)N2CCN(C/C=C/c3ccccc3)CC2)cc1 [flunarizine] | 8 fold | pronounced resistance | preferentially inhibited Jc1 | – | susceptibility of chimera with J8 E1 region R4 (in words) (JcR2a-E1 R4): partial resistance; resistance conferred by three mutations in E1 and E2 (JcR2a-Flun-R [4]): ca. 50 fold; susceptibility of chimera with J8 E1 region R3 (in words) (Jc1/J8-E1_R3): resistance profile comparable to Jc1 encoding the flunarizine resistance mutations; antiviral activity when applied only during the 5 minute low pH wash [5]: full antiviral activity; susceptibility of chimera with J8 E1 region R1 (in words) (JcR2a/J8-E1_R1): partial resistance; susceptibility of chimeric virus with J8-derived E1 (in words) (Jc1R2a/J8-E1 chimera): resistant
p-methoxy-flunarizine | – | pronounced resistance | – | beneficial | dose at which cell viability of treated cells was reduced by 50% (Huh-7.5-fluc cells): 9.6 µM
